According to patent US8128802B2, “Analysis apparatus and analysis method for glycosylated hemoglobin” (OJI Paper Co., Ltd, priority 2005, dated 2012):

What was measured:
Assay type in all cases: biochemical
[1] = tested on: fructosyl amino acid oxidase; assay: Characteristics of fructosyl amino acid oxidase-immobilized column (Example 5); settings: buffer pH 8.0, 37° C.
Method: FIG. 1 was the flow type assay apparatus with one flow path. The buffer A was pumped out from the buffer tank (1) using the pump (2), and a 5 μL portion of the sample was injected using the valve (4). The fructosyl amino acid oxidase-immobilized column was placed in the first immobilized enzyme column (17) and the electrode for hydrogen peroxide was placed downstream. The second immobilized enzyme column (19), the second electrode for hydrogen peroxide (20), the protease-immobilized column (14) and the flow type calorimeter (16) were not disposed. The injected sample transferred with the flowing buffer, passed through the mixing coil (15) in the incubator (13), and thus the sample temperature was adjusted and the sample was mixed with the buffer. The sample passed through the fructosyl amino acid oxidase-immobilized column (17) and the electrode for hydrogen peroxide (18), hydrogen peroxide was produced from fructosyl valine in the sample, and the change of the current was detected.
The composition of the buffer for this assay apparatus contained 100 mM phosphoric acid, 50 mM potassium chloride and 1 mM sodium azide, and its pH was 8.0.
The flow rate of the buffer was 1.0 mL/minute, and the temperature in the incubator was 37° C.
Using the assay apparatus 1 mentioned in (3), a 5 μL portion of fructosyl glycine was injected, and the characteristics of the fructosyl amino acid oxidase-immobilized column was examined.
When pH in the buffer was 7.0, 7.5, 8.0, 8.5 or 9.0, the activity in the oxidation of fructosyl glycine was measured.

[2] = tested on: fructosyl peptide oxidase; assay: Substrate specificity of fructosyl peptide oxidase-immobilized column (Example 4); settings: buffer A pH 7.0; for Relative response value: normalized to 100 for the response to fructosyl valine, 30° C.
Method: In the same way as described in Example 1 (1), 150 mg of firebrick powder (30 to 60 meshes) was formylated. The solution (200 μL) of fructosyl peptide oxidase (140 units/mL, from Kikkoman Co.) in 100 mM sodium phosphate buffer (pH 7.0) was contacted with the formylated firebrick powder, and then incubated at 0 to 4° C. for one day for the enzyme immobilization.
In the assay apparatus shown in FIG. 1, the protease-immobilized column (14), the flow type calorimeter (16) and the first immobilized enzyme column (17) were not disposed, and the electrode for glucose was placed in the electrode for hydrogen peroxide (18), the fructosyl peptide oxidase-immobilized column in the second immobilized enzyme column (19), and the electrode for hydrogen peroxide in the electrode for hydrogen peroxide (20). The buffer A was pumped out from the buffer tank (1) by the pump (2), and a 5 μL portion of the sample was injected using the valve (4). The injected sample transferred with the flowing buffer A, passed through the mixing coil (15) in the incubator (13), and thus the sample temperature was adjusted and the sample was mixed with the buffer. And then the sample passed through the downstream electrode for glucose (18), fructosyl peptide oxidase-immobilized column (19) and an electrode for hydrogen peroxide (20), hydrogen peroxide was produced from fructosyl valylhistidine in the sample, and the change of the current was detected.
The composition of the buffer A for the assay apparatus contained 100 mM phosphoric acid, 50 mM potassium chloride and 1 mM sodium azide, and its pH was 7.0.
(§1) The flow rate of the buffer was 1.0 mL/minute, and the temperature in the incubator was 30° C.
On fructosyl peptide oxidase-immobilized column, the substrate specificity for various fructosyl amino acids, fructosyl peptides, amino acids and sugars was examined using the assay apparatus mentioned in (4) when pH of the buffer A was 7.0. In the Table 4, the relative values were normalized to 100 for the response to fructosyl valine.

[3] = tested on: fructosyl peptide oxidase; assay: Substrate specificity, pH profile and stability of fructosyl peptide oxidase-immobilized column (Example 1); settings: for Relative activity (%) pH 6.0: buffer pH 6.0; for Relative activity (%) pH 6.0 / Relative activity (%) pH 7.0 / Relative activity (%) pH 8.0: normalized to 100 for the response to fructosyl valine at each pH, 30° C.; for Relative activity (%) pH 7.0: buffer pH 7.0; for Relative activity (%) pH 8.0: buffer pH 8.0
Method: Firebrick powder (150 mg, 30 to 60 meshes) was thoroughly dried, immersed in a 10% solution of γ-aminopropyltriethoxysilane in anhydrous toluene for one hour, then thoroughly washed with anhydrous toluene and dried. The aminosilane-modified support was immersed in a 5% aqueous glutaraldehyde solution for one hour, and then thoroughly washed with distilled water, followed by substitution with 100 mM sodium phosphate buffer (pH 7.0). The buffer was removed as far as possible. A solution ([…]) of fructosyl peptide oxidase (140 units/mL, from Kikkoman Co.) in 100 mM sodium phosphate buffer (pH 7.0) was contacted with the formylated firebrick powder, and then incubated at 0 to 4° C. for one day for the enzyme immobilization. The support immobilized enzyme was packed into a column (internal diameter: 3.5 mm, length: 30 mm) to give the fructosyl peptide oxidase-immobilized column.
The buffer was pumped out from a buffer tank (1) using a pump (2), and 5 μL of a sample was injected using a valve (4). A protease-immobilized column (14), a flow type calorimeter (16), a second immobilized enzyme column (19) and a second electrode for hydrogen peroxide (20) were not placed, and a fructosyl peptide oxidase-immobilized column was placed as a first immobilized enzyme column (17), followed by an electrode for hydrogen peroxide (18) downstream thereof. The injected sample transferred with the flowing buffer, passed through a mixing coil (15) inside an incubator (13), and thus the sample temperature was adjusted and the sample was mixed with the buffer. The sample passed through the fructosyl peptide oxidase-immobilized column (17) and the electrode for hydrogen peroxide (18) to produce hydrogen peroxide from fructosyl valylhistidine in the sample, and then the change of the current was detected.
A composition of the buffer used in this assay apparatus contained 100 mM phosphoric acid, 50 mM potassium chloride and 1 mM sodium azide, and its pH was 7.0.
as §1
Using the assay apparatus described in (3), a 5 μL portion of fructosyl glycine, fructosyl valine or fructosyl valylhistidine was injected, and the characteristics of the fructosyl peptide oxidase-immobilized column was examined.
When pH of the buffer was 6.0, 7.0 or 8.0, the assay results of the activity for the oxidation of fructosyl glycine (FG), fructosyl valine (FV) or fructosyl valylhistidine (FVH) were shown in FIG. 3. For fructosyl glycine the activity was high at pH 8.0, but the activity at pH 6.0 was decreased to about 50% of that at pH 8.0. For fructosyl valine and fructosyl valylhistidine, the activity was high at pH 6.0 and 7.0.
Response values in Table 1 were normalized to 100 for the response to fructosyl valine at each pH.

[4] = tested on: fructosyl amino acid oxidase; assay: Substrate specificity of fructosyl amino acid oxidase-immobilized column (Example 3); settings: buffers pH 8.0; normalized to 100 for the response to fructosyl glycine; 37° C.; dialysis module
Source text: The buffer was removed as far as possible. […] The support immobilized enzyme was packed into the column (internal diameter: 3.5 mm, length: 30 mm) to give the fructosyl amino acid oxidase-immobilized column. In the assay apparatus shown in FIG. 2, the flow type calorimeter (16), the protease-immobilized column (14) and the first immobilized enzyme column (17) were not disposed, and the electrode for glucose was placed in the electrode for hydrogen peroxide (18), the fructosyl amino acid oxidase-immobilized column in the second immobilized enzyme column (19), and the electrode for hydrogen peroxide in the electrode for hydrogen peroxide (20). The buffer B was pumped out from the buffer tank (24) using the pump (25), and a 100 μL portion of the sample was injected using the valve (4). […] Since the buffer A was pumped out from the buffer tank (1) by the pump (2), the components with low molecular weight in the sample dialyzed in the dialysis module (27) passed through the electrode for glucose (18), the fructosyl amino acid oxidase-immobilized column (19) and the electrode for hydrogen peroxide (20), and hydrogen peroxide from glucose and fructosyl amino acid in the sample was detected. […] The temperature in the incubator was 37° C. The substrate specificity of fructosyl amino acid oxidase-immobilized column for various fructosyl amino acids, fructosyl peptides, amino acids and sugars was examined using the assay apparatus mentioned in (4) when pH of the buffers was 8.0.

Compound	Relative activity (%) ([1]; sample concentration 10 mM)	Relative response value [2]	Relative activity (%) pH 6.0 [3]	Relative activity (%) pH 7.0 [3]	Relative activity (%) pH 8.0 [3]	Relative response value [4]	Relative activity (%) ([1]; sample concentration 0.1 mM)	response of fructosyl peptide oxidase-immobilized column (in words) [2]	response of fructosyl peptide oxidase-immobilized column (in words) ([3]; at any pH (6.0, 7.0, 8.0))
O=C[C@H](O)[C@@H](O)[C@H](O)CO [Xylose]	0.0%	0.0	0%	0%	0%	0.0	–	–	–
C[C@H](N)C(=O)O [Ala]	0.0%	0.0	0%	0%	0%	0.0	–	–	–
OCC(O)CO [Glycerol]	0.0%	0.0	0%	0%	0%	0.0	–	–	–
N[C@@H](Cc1c[nH]c2ccccc12)C(=O)O [Trp]	13.0%	0.0	0%	0%	0%	0.0	–	–	–
O=C(O)[C@H](CCCCNCC(=O)[C@@H](O)[C@H](O)[C@H](O)CO)NCC(=O)[C@@H](O)[C@H](O)[C@H](O)CO [α, ε-Fructosyl lysine]	–	9.9	9%	10%	11%	1.1	5.0%	scarcely responded	scarcely responded
